In ChEMBL document CHEMBL4321839, “Structure-activity relationships (SAR) of triazine derivatives: Promising antimicrobial agents” (Eur J Med Chem, 2020):
In brackets after ≈: the same amount, converted by molar mass.

Tests used:
[1] = tested on: Staphylococcus aureus; experiment: Antimicrobial activity against methicillin-resistant Staphylococcus aureus MW2 assessed as reduction in microbial growth after 18 hrs by broth microdilution method; format: functional; details: MW2, 18 h
[2] = tested on: Enterococcus faecium; experiment: Antimicrobial activity against Enterococcus faecium ATCC E007 assessed as reduction in microbial growth after 18 hrs by broth microdilution method; format: functional; details: ATCC E007, 18 h
[3] = tested on: Staphylococcus aureus; experiment: Antimicrobial activity against Staphylococcus aureus assessed as zone of inhibition at 1000 to 10000 ppm after 48 hrs; format: functional
[4] = tested on: Helicobacter pylori; experiment: Antimicrobial activity against Helicobacter pylori assessed as zone of inhibition; format: functional
[5] = tested on: Escherichia coli; experiment: Antimicrobial activity against Escherichia coli after 24 hrs by agar well diffusion assay; format: functional
[6] = tested on: Staphylococcus aureus; experiment: Antimicrobial activity against quinolone-resistant Staphylococcus aureus CCARM 3519 assessed as reduction in microbial growth by serial dilution method; format: functional
[7] = tested on: Staphylococcus aureus; experiment: Antimicrobial activity against quinolone-resistant Staphylococcus aureus CCARM 3505 assessed as reduction in microbial growth by serial dilution method; format: functional
[8] = tested on: Staphylococcus aureus; experiment: Antimicrobial activity against methicillin-resistant Staphylococcus aureus CCARM 3167 assessed as reduction in microbial growth by serial dilution method; format: functional
[9] = tested on: HepG2; experiment: Cytotoxicity against human HepG2 cells; format: cell-based
[10] = tested on: Staphylococcus aureus; experiment: Antimicrobial activity against methicillin-resistant Staphylococcus aureus CCARM 3506 assessed as reduction in microbial growth by serial dilution method; format: functional
[11] = tested on: Escherichia coli; experiment: Antimicrobial activity against Escherichia coli assessed as zone of inhibition after 18 hrs by disk diffusion method; format: functional
[12] = tested on: Proteus mirabilis; experiment: Antimicrobial activity against Proteus mirabilis assessed as zone of inhibition after 18 hrs by disk diffusion method; format: functional
[13] = tested on: Escherichia coli; experiment: Antimicrobial activity against Escherichia coli NCIM-2065 assessed as reduction in microbial growth after 24 hrs by CLSI based broth dilution method; format: functional; details: NCIM-2065, 24 h
[14] = tested on: Proteus vulgaris; experiment: Antimicrobial activity against Proteus vulgaris NCIM-2027 assessed as reduction in microbial growth after 24 hrs by CLSI based broth dilution method; format: functional; details: NCIM-2027, 24 h
[15] = tested on: Bacillus subtilis; experiment: Antimicrobial activity against Bacillus subtilis NCIM-2063 assessed as reduction in microbial growth after 24 hrs by CLSI based broth dilution method; format: functional; details: NCIM-2063, 24 h
[16] = tested on: Bacillus cereus; experiment: Antimicrobial activity against Bacillus cereus NCIM-2156 assessed as reduction in microbial growth after 24 hrs by CLSI based broth dilution method; format: functional; details: NCIM-2156, 24 h
[17] = tested on: Staphylococcus aureus; experiment: Antimicrobial activity against Staphylococcus aureus NCIM-2079 assessed as reduction in microbial growth after 24 hrs by CLSI based broth dilution method; format: functional; details: NCIM-2079, 24 h
[18] = tested on: Bacillus cereus; experiment: Antimicrobial activity against Bacillus cereus MTCC 430 assessed as reduction in microbial growth after 24 hrs by broth dilution method; format: functional; details: MTCC 430, 24 h
[19] = tested on: Candida albicans; experiment: Antifungal activity against Candida albicans MTCC 183 assessed as reduction in microbial growth after 48 hrs by broth dilution method; format: functional; details: MTCC 183, 48 h
[20] = tested on: Pseudomonas aeruginosa; experiment: Antimicrobial activity against Pseudomonas aeruginosa MTCC 741 assessed as reduction in microbial growth after 24 hrs by broth dilution method; format: functional; details: MTCC 741, 24 h
[21] = tested on: Aspergillus niger; experiment: Antifungal activity against Aspergillus niger MTCC 282 assessed as reduction in microbial growth after 48 hrs by broth dilution method; format: functional; details: MTCC 282, 48 h
[22] = tested on: Lacticaseibacillus casei; experiment: Antibacterial activity against Lactobacillus casei NCIM-2651 assessed as reduction in microbial growth incubated for 24 hrs by broth dilution method; format: functional; details: NCIM-2651, 24 h
[23] = tested on: Bacillus cereus; experiment: Antibacterial activity against Bacillus cereus NCIM-2458 assessed as reduction in microbial growth incubated for 24 hrs by broth dilution method; format: functional; details: NCIM-2458, 24 h
[24] = tested on: Aspergillus clavatus; experiment: Antifungal activity against Aspergillus clavatus MTCC 1323 assessed as reduction in microbial growth after 48 hrs by broth dilution method; format: functional; details: MTCC 1323, 48 h
[25] = tested on: Micrococcus luteus; experiment: Antimicrobial activity against Micrococcus luteus ATCC 10240 assessed as zone of inhibition at 10 mg/ml by Kirby-Bauer disk diffusion method; format: functional; details: read-out: IZ
[26] = tested on: Pseudomonas aeruginosa; experiment: Antimicrobial activity against Pseudomonas aeruginosa […] assessed as zone of inhibition at 10 mg/ml by Kirby-Bauer disk diffusion method; format: functional; details: read-out: IZ
[27] = tested on: Staphylococcus aureus; experiment: Antimicrobial activity against Staphylococcus aureus MTCC 96 assessed as reduction in microbial growth after 24 hrs by broth dilution method; format: functional; details: MTCC 96, 24 h
[28] = tested on: Pseudomonas aeruginosa; experiment: Antimicrobial activity against multi drug-resistant Pseudomonas aeruginosa CCARM 2109 assessed as reduction in microbial growth incubated for 18 to 24 hrs by two-fold serial dilution method; format: functional
[29] = tested on: Staphylococcus aureus; experiment: Antimicrobial activity against methicillin-resistant Staphylococcus aureus CCARM 3089 assessed as reduction in microbial growth incubated for 18 to 24 hrs by two-fold serial dilution method; format: functional
[30] = tested on: Staphylococcus aureus; experiment: Antimicrobial activity against methicillin-resistant Staphylococcus aureus CCARM 3095 assessed as reduction in microbial growth incubated for 18 to 24 hrs by two-fold serial dilution method; format: functional
[31] = tested on: Staphylococcus aureus; experiment: Antimicrobial activity against methicillin-resistant Staphylococcus aureus CCARM 3090 assessed as reduction in microbial growth incubated for 18 to 24 hrs by two-fold serial dilution method; format: functional
[32] = tested on: Pseudomonas aeruginosa; experiment: Antimicrobial activity against multi drug-resistant Pseudomonas aeruginosa CCARM 2095 assessed as reduction in microbial growth incubated for 18 to 24 hrs by two-fold serial dilution method; format: functional
[33] = tested on: Enterococcus faecium; experiment: Antimicrobial activity against vancomycin-resistant Enterococcus faecium ATCC 51559 assessed as reduction in microbial growth incubated for 18 to 24 hrs by two-fold serial dilution method; format: functional

CC(C)(C)Nc1nc(NN)nc(NC(C)(C)C)n1
MIC [1]: 8 µg/mL
MIC [2]: 8 µg/mL

Cc1c(C(=O)NNc2ccccc2)nnc2c3c(-c4ccccc4)c(-c4ccccc4)nnc3nn12
inhibition zone (IZ) [3]: 4 mm

CC(=O)c1nnc2c3c(-c4ccccc4)c(-c4ccccc4)nnc3nn2c1C
inhibition zone (IZ) [3]: 44 mm

Nc1nc(-n2c(-c3ccc([N+](=O)[O-])cc3)nc3ccccc3c2=O)nnc1-c1ccccc1
MIC [4]: 25 µg/mL (≈ 57.2 µM)

Clc1nc2nc(n1)Oc1ccc3ccccc3c1Cc1c(ccc3ccccc13)Oc1nc(Cl)nc(n1)OCc1cccc(n1)CO2
MIC [5]: 50 µg/mL (≈ 75.5 µM)

NC1=NC(c2ccc3cc(OCc4ccc(Cl)cc4Cl)ccc3c2)N=C(N2CCOCC2)N1 (stereo not given)
MIC [6]: 2.1 µM
MIC [7]: 2.1 µM
MIC [8]: 2.1 µM
IC50 [9]: 34.3 µM
MIC [10]: 2.1 µM

O=C(CN/N=C/Cc1ccccn1)CSc1nnc2c3ccccc3n(CC(=O)N/N=C/c3ccccn3)c2n1
inhibition zone (IZ) [11]: 24 mm
inhibition zone (IZ) [12]: 24 mm

CCOc1ccc(/C=N/NC(=O)Cn2c3ccccc3c3nnc(SCC(=O)CN/N=C/Cc4ccc(OCC)cc4)nc32)cc1
inhibition zone (IZ) [11]: 22 mm
inhibition zone (IZ) [12]: 22 mm

O=C1CSC(c2ccc([N+](=O)[O-])cc2)N1c1nc(Nc2ccc([N+](=O)[O-])cc2)nc(Nc2ccc([N+](=O)[O-])cc2)n1 (stereo not given)
MIC [13]: 1.95 to 15.6 µg/mL
MIC [14]: 1.95 to 15.6 µg/mL
MIC [15]: 1.95 to 15.6 µg/mL
MIC [16]: 1.95 to 15.6 µg/mL
MIC [17]: 1.95 to 15.6 µg/mL

COc1nc(Sc2cccc(Cl)c2)nc(-c2ccc(C#N)cc2)n1
MIC [18]: 6.25 µg/mL
MIC [19]: 3.12 µg/mL

COc1nc(Sc2cccc(F)c2)nc(-c2ccc(C#N)cc2)n1
MIC [20]: 3.12 µg/mL
MIC [21]: 3.12 µg/mL

Nc1nc(Nc2nc(-c3ccc(Cl)c(Cl)c3)cs2)nc(Sc2ccccc2)n1
MIC [22]: 3.12 µg/mL
MIC [23]: 3.12 µg/mL

COc1nc(Sc2ccc(Cl)cc2)nc(-c2ccc(C#N)cc2)n1
MIC [24]: 3.12 µg/mL

Cc1cc(C)n(-c2nc(NCc3ccccc3)nc(N3CCCCC3)n2)n1
zone of inhibition at 10000 µg/mL [25]: 22 mm
zone of inhibition at 10000 µg/mL [26]: 19 mm

O=C1CSC(c2ccccc2[N+](=O)[O-])N1c1nc(Nc2ccccc2[N+](=O)[O-])nc(Nc2ccccc2[N+](=O)[O-])n1 (stereo not given)
MIC [13]: 1.95 to 15.6 µg/mL
MIC [14]: 1.95 to 15.6 µg/mL
MIC [15]: 1.95 to 15.6 µg/mL
MIC [16]: 1.95 to 15.6 µg/mL
MIC [17]: 1.95 to 15.6 µg/mL

COc1nc(Sc2ccc(F)cc2)nc(-c2ccc(C#N)cc2)n1
MIC [27]: 3.12 µg/mL

CC1(C)c2ccccc2Oc2nc(Cl)nc(n2)OCc2cccc(n2)COc2nc(Cl)nc(n2)Oc2ccccc21
MIC [5]: 50 µg/mL (≈ 84.7 µM)

N=C(N)NCCCN(CCCNC(=N)N)c1nc(NCCC(c2ccccc2)c2ccccc2)nc(NCCC(c2ccccc2)c2ccccc2)n1
MIC [28]: 4 µM
MIC [29]: 2 µM
MIC [30]: 2 µM
MIC [31]: 2 µM
MIC [32]: 4 µM
MIC [33]: 4 µM

Nc1nc(Nc2ccccc2)nc(Nc2nc(-c3ccc(Cl)c(Cl)c3)cs2)n1
MIC [22]: 3.12 µg/mL
MIC [23]: 3.12 µg/mL

N=C(N)NCCCN(CCCNC(=N)N)c1nc(NCc2cccc3ccccc23)nc(NCc2cccc3ccccc23)n1
MIC [28]: 8 µM
MIC [29]: 2 µM
MIC [30]: 2 µM
MIC [31]: 2 µM
MIC [32]: 8 µM
MIC [33]: 2 µM
